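Each compound was tested at five concentrations against cells in 96-well plates for 48 hours. GI50 marks 50% less growth.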 The source made the active and inactive calls. No stated cut-off is given here; in the data, active = GI50 up to about 1.1 µM and inactive = higher.

Among the test systems are 786-0; CCRF-CEM; COLO 205; HCT-15; HL-60; HT-29; KM12; NCI-H522; OVCAR-4; OVCAR-5; OVCAR-8; SF-539; SNB-19; TK-10; U-251; UACC-257; UO-31; ACHN; SK-MEL-28.
Experiment in all cases: NCI-60 cell line screen, 48 h

Consider `COc1ccc(C(c2ccc(C(C)C)cc(OC)c2=O)c2ccc(C(C)C)cc(OC)c2=O)cc1`, for which the GI50 in the assay with 786-0 is 16.6 µM (inactive); in the assay on CCRF-CEM, 10.2 µM (inactive); in the assay with COLO 205, 17.2 µM (inactive); with HCT-15 it was 12.7 µM; in the assay on HL-60 it was 12.2 µM (inactive); with HT-29 it was 10.8 µM (inactive). The GI50 was 13.5 µM (inactive) with KM12; 14.4 µM (inactive) with NCI-H522; 12.2 µM (inactive) with OVCAR-4; 20.1 µM (inactive) in the assay with OVCAR-5; 16.6 µM (inactive) in the assay with OVCAR-8; 17 µM (inactive) with SF-539. In addition, the GI50 with SNB-19 is 15.9 µM (inactive); in the assay with TK-10, 19.6 µM (inactive); in the assay on U-251, 13.7 µM (inactive); in the assay with UACC-257, 15.5 µM (inactive); with UO-31, 14.3 µM (inactive).
For `COC1(C)C(=O)N2C1N(C(=O)OCc1ccccc1)CC2(C)C` (configuration not stated), the GI50 in the assay with 786-0 is > 100 µM (inactive); with ACHN, > 100 µM (inactive); in the assay on CCRF-CEM it was > 100 µM (inactive); with COLO 205, > 100 µM (inactive); in the assay with HCT-15, more than 100 µM; in the assay on HL-60, > 100 µM (inactive). The GI50 in the assay with HT-29, in the assay with OVCAR-4, in the assay on OVCAR-8, with SF-539, with SK-MEL-28 and in the assay with SNB-19 was > 100 µM (inactive) in each case. The GI50 in the assay on TK-10, in the assay with U-251, in the assay with UACC-257 and in the assay on UO-31 was > 100 µM (inactive) in each case.
As to `C[C@]12CC[C@H](OCCC#N)CC1=CC[C@@H]1C2CC[C@]2(C)/C(=N/OCCC#N)CCC12` (some centres not stated), the GI50 in the assay on 786-0 was 33 µM (inactive); in the assay with ACHN, 16.7 µM (inactive); in the assay with CCRF-CEM it was > 100 µM (inactive); with COLO 205 it was > 100 µM (inactive); in the assay on HCT-15 it was more than 100 µM; in the assay on HL-60 it was 2.48 µM (inactive). For the same compound, the GI50 with KM12 was > 100 µM (inactive); in the assay with NCI-H522, 20.9 µM (inactive); in the assay on OVCAR-4, 29 µM (inactive); in the assay with OVCAR-5, > 100 µM (inactive); in the assay on OVCAR-8 it was > 92.7 µM (inactive); with SF-539 it was 55 µM (inactive). Also, the GI50 was > 74.6 µM (inactive) in the assay with SK-MEL-28; 36.6 µM (inactive) with SNB-19; > 44.4 µM (inactive) in the assay on TK-10; 24.8 µM (inactive) with U-251; 6.62 µM (inactive) in the assay with UACC-257; > 100 µM (inactive) in the assay with UO-31.
For the compound `CNC(=S)N/N=C(\C(=N/NC(=S)NC)c1ccccn1)c1ccccn1`, the GI50 with 786-0 was 5.71 µM (inactive); in the assay with ACHN, 2.99 µM (inactive); in the assay on COLO 205 it was 1.41 µM (inactive); in the assay with HCT-15, 0.232 µM; in the assay on HT-29, < 0.01 µM (active); with KM12, 14.2 µM (inactive). Also, the GI50 with NCI-H522 was 1.77 µM (inactive); in the assay on OVCAR-4, 10.9 µM (inactive); with OVCAR-8 it was 0.687 µM (active); in the assay with SF-539 it was 45.8 µM (inactive); in the assay with SK-MEL-28, 29 µM (inactive); in the assay on SNB-19 it was 10.3 µM (inactive). Moreover, the GI50 is 4.04 µM (inactive) with TK-10, 0.289 µM (active) in the assay on U-251, 1.82 µM (inactive) in the assay with UACC-257 and 2.48 µM (inactive) with UO-31.
With `CC1=C2CC3=C(C)C(=O)O[C@H]3C[C@@H](C)[C@@H]2CC1` [AMERICANOLIDE D], the GI50 in the assay on 786-0 is > 100 µM (inactive); in the assay on ACHN, > 100 µM (inactive); in the assay with CCRF-CEM it was 76.2 µM (inactive); in the assay with COLO 205, > 100 µM (inactive); in the assay with HCT-15, more than 100 µM; in the assay on HL-60 it was 80.5 µM (inactive). Further, the GI50 with HT-29 is 85.9 µM (inactive); in the assay with KM12, 7.48 µM (inactive); in the assay with OVCAR-4, > 100 µM (inactive); with OVCAR-5, > 100 µM (inactive); with OVCAR-8, > 100 µM (inactive); with SK-MEL-28, > 100 µM (inactive). Also, the GI50 in the assay with SNB-19, in the assay with TK-10, with U-251, in the assay on UACC-257 and with UO-31 was > 100 µM (inactive) each time.
In the case of `COc1ccc(-c2csc(-n3c(-c4ccccc4)nc4c(Br)cc(Br)cc4c3=O)n2)cc1`, the GI50 was 22.9 µM (inactive) in the assay on 786-0; 25.1 µM (inactive) with ACHN; 13.1 µM (inactive) in the assay on CCRF-CEM; 37 µM (inactive) in the assay with COLO 205; 19.3 µM in the assay on HCT-15; 20.2 µM (inactive) in the assay with HL-60. The GI50 in the assay with HT-29 was 26.7 µM (inactive); in the assay with KM12, 33.6 µM (inactive); in the assay on NCI-H522, 19.8 µM (inactive); with OVCAR-4, 63.2 µM (inactive); in the assay with OVCAR-5 it was 20.9 µM (inactive); in the assay with OVCAR-8, 26.7 µM (inactive). Besides, the GI50 in the assay on SK-MEL-28 is 23.2 µM (inactive); with SNB-19, 34 µM (inactive); in the assay with TK-10, 51.5 µM (inactive); with U-251, 28.7 µM (inactive); in the assay on UACC-257, 30.3 µM (inactive); in the assay on UO-31 it was 23.4 µM (inactive).
Turning to `Cc1[nH]c2ccccc2c1C(=O)/C=C/c1ccccc1O`, the GI50 with 786-0, in the assay on ACHN, with CCRF-CEM, with COLO 205, with HL-60 and in the assay with HT-29 was > 100 µM (inactive) in each case. The GI50 in the assay on KM12, with NCI-H522, in the assay on OVCAR-4, with OVCAR-5, with OVCAR-8 and in the assay with SK-MEL-28 was > 100 µM (inactive) each time. Moreover, the GI50 with SNB-19, in the assay with TK-10, in the assay on U-251, with UACC-257 and in the assay with UO-31 was > 100 µM (inactive) in each case.
With `Cc1ccc(S(=O)(=O)C(C#N)c2nc3ccccc3nc2-n2cccn2)cc1` (configuration not stated), the GI50 in the assay on 786-0 was > 100 µM (inactive); with ACHN, > 100 µM (inactive); in the assay on CCRF-CEM, > 100 µM (inactive); with COLO 205 it was > 100 µM (inactive); with HCT-15, more than 100 µM; in the assay with HL-60 it was > 100 µM (inactive). Moreover, the GI50 with HT-29, with KM12, in the assay with OVCAR-4, in the assay on OVCAR-5, in the assay on OVCAR-8 and in the assay with SF-539 was > 100 µM (inactive) throughout. Also, the GI50 with SK-MEL-28, with SNB-19, in the assay on TK-10, with U-251, with UACC-257 and in the assay with UO-31 was > 100 µM (inactive) in each case.
As to `CCOC(=O)C1S/C(=N\C(=N)N[N+](=O)[O-])N=C1C` (configuration not stated), the GI50 with 786-0 is > 100 µM (inactive); in the assay with ACHN, > 100 µM (inactive); in the assay on COLO 205, > 100 µM (inactive); in the assay with HCT-15, more than 100 µM; in the assay on HL-60 it was > 100 µM (inactive); in the assay on HT-29, > 100 µM (inactive). Also, the GI50 in the assay with KM12, in the assay on NCI-H522, with OVCAR-4, in the assay on OVCAR-5, in the assay with OVCAR-8 and in the assay on SF-539 was > 100 µM (inactive) throughout. In addition, the GI50 in the assay with SK-MEL-28, in the assay on SNB-19, in the assay with TK-10, in the assay on U-251, with UACC-257 and with UO-31 was > 100 µM (inactive) each time.
`COC1OC(C)C2OC(C)(C)OC2C1OC(C)=O` (configuration not stated): the GI50 in the assay with 786-0 is > 100 µM (inactive); in the assay on ACHN, > 100 µM (inactive); in the assay with CCRF-CEM, > 100 µM (inactive); with COLO 205 it was > 100 µM (inactive); in the assay with HCT-15 it was more than 100 µM; with HL-60, > 100 µM (inactive). Further, the GI50 in the assay with HT-29, in the assay with KM12, in the assay on NCI-H522, in the assay on OVCAR-4, in the assay with OVCAR-5 and in the assay on OVCAR-8 was > 100 µM (inactive) in each case. For the same compound, the GI50 in the assay on SF-539, in the assay on SK-MEL-28, with SNB-19, with TK-10, in the assay with U-251 and in the assay on UACC-257 was > 100 µM (inactive) in each case.
On to `O=C(CC1(O)C(=O)Nc2c(Cl)cc(Cl)cc21)c1ccc(F)cc1` (configuration not stated), for which the GI50 in the assay on 786-0 was 19.8 µM (inactive); in the assay on ACHN, 35.9 µM (inactive); in the assay with COLO 205 it was 19 µM (inactive); in the assay on HCT-15, 30.6 µM; in the assay with HT-29, 27.3 µM (inactive); with KM12, 37.2 µM (inactive). Besides, the GI50 in the assay with OVCAR-4 is 27.8 µM (inactive); with OVCAR-5, 64.7 µM (inactive); in the assay with OVCAR-8, 21.2 µM (inactive); in the assay on SF-539, 28.4 µM (inactive); with SK-MEL-28, 71.6 µM (inactive); in the assay on SNB-19, 59.3 µM (inactive). The GI50 in the assay on TK-10 is > 100 µM (inactive); with U-251, 31.3 µM (inactive); with UACC-257 it was 27.6 µM (inactive); in the assay with UO-31 it was 42.1 µM (inactive).
In the case of `O=S(=O)(c1ccccc1)C(c1ccc2ccccc2n1)S(=O)(=O)c1ccccc1`, the GI50 in the assay on 786-0 was > 100 µM (inactive); with ACHN, > 100 µM (inactive); in the assay with COLO 205, > 100 µM (inactive); in the assay with HCT-15 it was more than 100 µM; in the assay with HL-60, > 100 µM (inactive); in the assay with HT-29, > 100 µM (inactive). For the same compound, the GI50 was > 100 µM (inactive) in the assay on KM12; 90.2 µM (inactive) in the assay with NCI-H522; 55.6 µM (inactive) with OVCAR-4; > 100 µM (inactive) with OVCAR-5; > 100 µM (inactive) in the assay with OVCAR-8; > 100 µM (inactive) with SF-539. Also, the GI50 in the assay on SK-MEL-28, in the assay on SNB-19, in the assay on TK-10, in the assay on U-251, in the assay on UACC-257 and in the assay on UO-31 was > 100 µM (inactive) each time.

These data come from ChEMBL document CHEMBL1201862, “PubChem BioAssay data set” (2004).
